Reference: patent US11286268B1, “EIF4E-inhibiting compounds and methods” (EFFECTOR THERAPEUTICS, INC., priority 2019, dated 2022)
Like-named read-outs stand apart in the source and are kept apart here.

Biological target: recombinant eIF4E (Homo sapiens (Human), UniProt P06730)
Assay: Fluorescence polarization competition assay for eIF4E binding potency
Description: Compounds were screened for eIF4E binding potency using a fluorescence polarization competition assay. All binding reactions were performed in fluorescence polarization buffer (FPB) containing 20 mM Tris pH 7.5, 100 mM NaCl, 1 mM DTT, and 0.02% Tween-20. Final binding reactions contained 75 nM recombinant eIF4E (Beryllium, custom order), 20 nM EDA-m^7GDP-ATTO-550 (Jena Bioscience, NU-827-550) and varying concentrations of the inhibitory compound of interest. Final DMSO concentration in each reaction was 1%.
eIF4E protein was pre-incubated with EDA-m^7GDP-ATTO-550 in FPB at 2× concentrations for 5 minutes prior to the addition of compounds. Compounds (100×) were prepared using 3-fold serial dilutions in 100% DMSO, and subsequently diluted 1:50 in FPB to produce 2× stocks. 50 μl of 2× eIF4E/EDA-m^7GDP-ATTO-550 were transferred to the wells of a 96-well half-area black flat bottom polystyrene plate. 50 μl of 2× test compound were added, and binding reactions were allowed to equilibrate for 30 minutes at room temperature while protected from light. The fluorescent polarization signal was detected using a Victor 2 multi-label counter (Perkin Elmer) and the concentration necessary to achieve inhibition of eIF4E/EDA-m^7GDP-ATTO-550 binding by 50% (IC50) was calculated using data from an 8-point compound dilution series.
In Table 4A, IC50 values of less than 0.05 μM are labelled as “+++”, from 1 to 0.05 μM are labelled as “++”, and greater than 1 μM are labelled as “+”. ND=not determined.

[1] = fluorescence polarization competition, 75 nM recombinant eIF4E, 20 nM EDA-m7GDP-ATTO-550, IC50 class, read-out: elF4E FP
[2] = inhibition of eIF4E/EDA-m7GDP-ATTO-550 binding by 50%, Table 4B calculated values, read-out: IC50
[3] = inhibition of eIF4E/EDA-m7GDP-ATTO-550 binding, calculated IC50 values, Table 4B, read-out: IC50

recombinant eIF4E, sequence (P06730 whole entry): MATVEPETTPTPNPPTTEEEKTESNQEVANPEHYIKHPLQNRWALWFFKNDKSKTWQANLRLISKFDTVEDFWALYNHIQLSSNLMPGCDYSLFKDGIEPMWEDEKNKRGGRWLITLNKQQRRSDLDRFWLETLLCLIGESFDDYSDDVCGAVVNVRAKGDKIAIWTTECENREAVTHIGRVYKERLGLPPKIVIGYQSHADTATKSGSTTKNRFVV

Row | SMILES | IC50 [1] | IC50 [2] | IC50 [3]
1 | Cc1cc(-c2cc(Cl)ccc2OCCn2c(C)nc3cnc(-c4ccc(Cl)cc4)c(C#N)c3c2=O)c2scc(C(=O)O)c2n1 [compound 949] | < 50 nM | 37.3 nM | –
2 | Cc1cc(-c2cc(Cl)ccc2OCCn2c(C)nc3c(C(F)F)ncc(C#N)c3c2=O)c2scc(C(=O)O)c2n1 [compound 372] | < 50 nM | 7.34 nM | –
3 | Cc1nc2cnc(/C=C/CN3CCC(F)(F)CC3)c(C#N)c2c(=O)n1CCOc1ccc(Cl)cc1-c1ccnc2c(C(=O)O)csc12 [compound 1121] | < 50 nM | 9.26 nM | –
4 | Cc1nc2cc(C(F)(F)F)cc(C#N)c2c(=O)n1CCOc1ccc(Cl)cc1-c1ccnc2c(C(C)(C)O)csc12 [compound 352] | > 1000 nM | 1270 nM | –
5 | Cc1nc2cnc(N3CCN(C4(C(F)F)CC4)CC3)c(C#N)c2c(=O)n1CC#Cc1ccc(Cl)cc1-c1ccnc2c(C(=O)O)csc12 [compound 1366] | – | – | 14.3 nM
6 | Cc1cc(-c2cc(Cl)ccc2C#CCn2c(C)nc3cc(C(F)(F)F)c(CN(C)C)c(C#N)c3c2=O)c2scc(C(=O)O)c2n1 [compound 562] | < 50 nM | 8.78 nM | –
7 | Cc1nc2cc(C(F)(F)F)c(CCN(C)C)cc2c(=O)n1CCOc1ccc(Cl)cc1-c1ccnc2c(C(=O)O)csc12 [compound 858] | < 50 nM | 7.28 nM | –
8 | O=C(O)c1cccc(-c2cc(Cl)ccc2OCCn2cnc3cccc(F)c3c2=O)c1 [compound 4] | > 1000 nM | 3520 nM | –
9 | Cc1nc2cnc(N(C)C3CCN(C(c4ccn(C)n4)C(F)F)CC3)c(C#N)c2c(=O)n1CC#Cc1ccc(Cl)cc1-c1ccnc2c(C(=O)O)csc12 (stereo not shown) [compound 1537] | – | – | 18.9 nM
10 | Cc1nc(N2CCN(C)CC2)c(C#N)c2c(=O)n(CC#Cc3ccc(Cl)cc3-c3ccnc4c(C(=O)O)csc34)c(C)nc12 [compound 1273] | – | – | 7.48 nM
11 | Cc1nc2cc(F)c(F)c(C#N)c2c(=O)n1CCOc1ccc(Cl)cc1-c1ccnc2c(C(=O)O)csc12 [compound 1947] | – | – | 29.7 nM
12 | O=C(O)c1cccc(-c2cc(Cl)ccc2OCCn2ccc3cccnc3c2=O)c1 [compound 7] | > 1000 nM | 12000 nM | –
13 | Cc1nc2cc(C(F)(F)F)c(N3CCN(C4CC(F)(F)C4)CC3)c(C#N)c2c(=O)n1CCOc1ccc(Cl)cc1-c1ccnc2c(C(=O)O)csc12 [compound 1292] | – | – | 52.3 nM
14 | Cc1ncc(-c2cc(Cl)ccc2OCCn2c(C)nc3cnc(C4CC4)c(C#N)c3c2=O)c2scc(C(=O)O)c12 [compound 900] | < 50 nM | 11.2 nM | –
15 | Cc1nc2cc(C#N)c(OC(F)F)c(C#N)c2c(=O)n1CCOc1ccc(Cl)cc1-c1ccnc2c(C(=O)O)csc12 [compound 547] | 50 to 1000 nM | 134 nM | –
16 | Cc1nc2cnc(N3CC4(CN(CC(F)F)C4)C3)c(C#N)c2c(=O)n1CC#Cc1ccc(Cl)cc1-c1ccnc2c(C(=O)O)csc12 [compound 893] | < 50 nM | 20.1 nM | –
17 | Cc1nc2cnc(N(C)C3CCN(CC(C)(C)F)CC3)c(C#N)c2c(=O)n1CCOc1ccc(Cl)cc1-c1ccnc2c(C(=O)O)csc12 [compound 1655] | – | – | 13.4 nM
18 | Cc1nc2cc(Cl)c(C(F)F)c(C#N)c2c(=O)n1CCOc1ccc(Cl)cc1-c1ccnc2c(C(=O)O)csc12 [compound 119] | < 50 nM | 19.9 nM | –
19 | COC1CN(c2c(Cl)cc3nc(C)n(CCOc4ccc(Cl)cc4-c4cc(C)nc5c(C(=O)O)csc45)c(=O)c3c2C#N)C1 [compound 701] | < 50 nM | 19.2 nM | –
20 | N#Cc1cccc2nc(C(F)F)n(CCOc3ccc(Cl)cc3-c3ccnc(C(=O)O)c3)c(=O)c12 [compound 166] | < 50 nM | 35 nM | –
21 | Cc1nc2cnc(N3CC4(C3)CN(C3(CF)CC3)C4)c(C#N)c2c(=O)n1CCOc1ccc(Cl)cc1-c1ccnc2c(C(=O)O)csc12 [compound 825] | < 50 nM | 14.3 nM | –
22 | CCN(c1ncc2nc(C)n(CC#Cc3ccc(Cl)cc3-c3ccnc4c(C(=O)NS(=O)(=O)C(C)C)csc34)c(=O)c2c1C#N)C1CCN(C2COC2)CC1 [compound 1746] | – | – | 10.8 nM
23 | Cc1cc(-c2cc(Cl)ccc2OCCn2c(C)nc3c(F)cc(Cl)c(C#N)c3c2=O)c2scc(C(=O)O)c2n1 [compound 588] | < 50 nM | 49.3 nM | –
24 | Cc1cc(-c2cc(Cl)ccc2OCCn2c(C)nc3cnc(-n4cccn4)c(C#N)c3c2=O)c2scc(C(=O)O)c2n1 [compound 984] | < 50 nM | 11.5 nM | –
25 | Cc1nc2cnc(CCN(C)CC(F)F)c(C#N)c2c(=O)n1CC#Cc1ccc(Cl)cc1-c1ccnc2c(C(=O)O)csc12 [compound 1492] | – | – | 20.1 nM

Row | SMILES | IC50 [1] | IC50 [2] | IC50 [3]
26 | Cc1cc(-c2nc3c(=O)n(CCOc4ccc(Cl)cc4-c4cc(C)nc5c(C(=O)O)csc45)c(C)nc3cc2C(F)(F)F)ccn1 [compound 463] | < 50 nM | 8.86 nM | –
27 | Cc1nc2cc(C(F)(F)F)c(N3CCN(CCC(F)(F)F)CC3)c(C#N)c2c(=O)n1CCOc1ccc(Cl)cc1-c1ccnc2c(C(=O)O)csc12 [compound 1293] | – | – | 35.1 nM
28 | CCN(c1ncc2nc(C)n(CC#Cc3ccc(Cl)cc3-c3ccnc4c(C(=O)O)csc34)c(=O)c2c1C#N)C1CCN(C2CC2)CC1 [compound 1600] | – | – | 20.3 nM
29 | N#Cc1c(C(F)F)ccc2nc(C(F)F)n(CCOc3ccc(Cl)cc3-c3ccnc4c(C(=O)O)csc34)c(=O)c12 [compound 188] | 50 to 1000 nM | 63.2 nM | –
30 | Cc1nc2cc(C(F)(F)F)cc(C#N)c2c(=O)n1CCOc1ccc(Cl)cc1-c1ccnc2c(-c3cc(O)no3)csc12 [compound 1375] | – | – | 83.9 nM
31 | Cc1nc2cnc(N(C)C3CCN(CC(F)F)CC3)c(C#N)c2c(=O)n1CC#Cc1ccc(Cl)cc1-c1ccnc2c(C(=O)NS(=O)(=O)c3ccccn3)csc12 [compound 1566] | – | – | 4.39 nM
32 | Cc1nc2cc(OC(F)(F)F)c(C#N)c(C#N)c2c(=O)n1CCOc1ccc(Cl)cc1-c1ccnc2c(C(=O)O)csc12 [compound 543] | < 50 nM | 38.2 nM | –
33 | Cc1cc(-c2cc(Cl)ccc2OCCn2c(C)nc3c(C)nc(N4CCC(O)C4)c(C#N)c3c2=O)c2scc(C(=O)O)c2n1 (stereo not shown) [compound 1149] | < 50 nM | 4.19 nM | –
34 | Cc1nc2ccc(C(F)F)c(C#N)c2c(=O)n1CCOc1ccc(Cl)cc1-c1ccnc2c(C(=O)O)csc12 [compound 160] | < 50 nM | 8.83 nM | –
35 | N#Cc1cc(C(F)(F)F)cc2c(Cl)c(Cl)n(CCOc3ccc(Cl)cc3-c3ccnc4c(C(=O)O)csc34)c(=O)c12 [compound 1970] | – | – | 67.2 nM
36 | N#Cc1cc2c(=O)n(CCCc3ccc(Cl)cc3-c3cccc(C(=O)O)c3)cnc2cn1 [compound 42] | > 1000 nM | 19800 nM | –
37 | Cc1nc2cc(C(=O)N(C)C)cc(C#N)c2c(=O)n1CCOc1ccc(Cl)cc1-c1ccnc2c(C(=O)O)csc12 [compound 413] | < 50 nM | 34.6 nM | –
38 | Cc1nc2cnc(N(C)C3CCN([C@H]4C[C@H](OC(F)F)C4)CC3)c(C#N)c2c(=O)n1CC#Cc1ccc(Cl)cc1-c1ccnc2c(C(=O)NS(=O)(=O)C3COC3)csc12 [compound 1762] | – | – | 25 nM
39 | Cc1cc(-c2cc(Cl)ccc2OCCn2c(C)nc3cc(C(F)(F)F)c(N4CCS(=O)(=O)CC4)c(C#N)c3c2=O)c2scc(C(=O)O)c2n1 [compound 867] | < 50 nM | 6.61 nM | –
40 | Cc1nc2cnc(N(C)C3CCCCC3)c(C#N)c2c(=O)n1CC#Cc1ccc(Cl)cc1-c1ccnc2c(C(=O)O)csc12 [compound 1120] | < 50 nM | 9.51 nM | –
41 | Cc1nc2cnc(N(C)C3CCN(CC4(C(F)(F)F)CCO4)CC3)c(C#N)c2c(=O)n1CC#Cc1ccc(Cl)cc1-c1ccnc2c(C(=O)O)csc12 (stereo not shown) [compound 1717] | – | – | 13.4 nM
42 | Cc1nc2cnc(C#CCN(C)CC(F)(F)F)c(C#N)c2c(=O)n1CC#Cc1ccc(Cl)cc1-c1ccnc2c(C(=O)O)csc12 [compound 1468] | – | – | 35 nM
43 | CNc1nc2c(F)c(F)cc(CCOc3ccc(Cl)cc3-c3cccc(C(=O)O)c3)c2c(=O)[nH]1 [compound 172] | 50 to 1000 nM | 92.3 nM | –
44 | Cc1cc(-c2c(C(F)(F)F)cc3nc(C)n(CCOc4ccc(Cl)cc4-c4cc(C)nc5c(C(=O)O)csc45)c(=O)c3c2C#N)cnn1 [compound 442] | < 50 nM | 17.7 nM | –
45 | Cc1cc(-c2cc(Cl)ccc2OCCn2c(C)nc3cc(C(F)(F)F)c(-c4ccncn4)nc3c2=O)c2scc(C(=O)O)c2n1 [compound 767] | < 50 nM | 7.51 nM | –
46 | Cc1cc(-c2cc(Cl)ccc2OCCn2c(C)nc3cc(C(F)(F)F)c(N(C)C)c(C#N)c3c2=O)c2scc(C(=O)O)c2n1 [compound 996] | < 50 nM | 31.6 nM | –
47 | O=C(O)c1cccc(-c2cc(Cl)ccc2OCCn2cnc3cccnc3c2=O)c1 [compound 21] | 50 to 1000 nM | 575 nM | –
48 | Cc1cc(-c2cc(Cl)ccc2OCCn2c(C)nc3cc(C(F)(F)F)c(-c4nccnc4C(F)(F)F)nc3c2=O)c2scc(C(=O)O)c2n1 [compound 990] | < 50 nM | 32.2 nM | –
49 | Cc1nc2cccc(C#N)c2c(=O)n1CCOc1ccc(Cl)cc1-c1cccc(C(=O)O)c1 [compound 1147] | < 50 nM | 44.6 nM | –
